{
  "source": "patent US11485762B2",
  "about": "“Compositions and methods for inhibition of L-plastin activity in osteoclasts to reduce bone loss” (University of Maryland, Baltimore, priority 2017, dated 2022)",
  "key": {"integrin αv": {"tested_on": "integrin αv", "experiment": "Localization of integrin αv in NSZs (immunostaining with LPL and integrin αv antibody)", "type": "cell-based, mouse", "conditions": "3, 6 and 10 hours", "method": "After cells were kept in the serum-free α-MEM medium for two hours, LPL peptides of interest were added to a final concentration of 100-150 nM to cells in serum-free media (Chellaiah et al, 2000, J. Biol. Chem., 275: 11993-12002). Osteoclasts transduced with peptides of interest and added with bone particles in the presence of TNF-α for 3-4 hours or 12-14 hours were used for lysate preparations. Cells plated on coverslips and treated with peptides were used for actin staining to detect podosomes. After transduction for 30 min., osteoclasts were re-plated on dentine slices with respective LPL peptide and TNF-α for 3-6 hours or 12-14 hours. These cells were used for Actin staining with rhodamine-phalloidin or immunostaining analyses (Chellaiah et al., 2000, J. Biol. Chem., 275: 11993-12002; Chellaiah et al., 2000, J. Cell. Biol., 148: 665-678; Chellaiah et al., 2003, J Biol Chem 278: 29086-29097).\nOsteoclasts were fixed with 3% paraformaldehyde for 20 minutes and permeabilized with 0.1% Triton X-100 in PBS for 5 minutes. Subsequently, osteoclasts were stained with a primary (HA or integrin αv) and secondary antibody as described (Chellaiah et al., 2003, J Biol Chem 278: 29086-29097). Actin staining was done with rhodamine-phalloidin as described (Chellaiah et al., 2000, J. Biol. Chem., 275: 11993-12002; Chellaiah et al., 2000, J. Cell Biol., 148: 665-678). […]"}, "[1]": {"tested_on": "osteoclasts derived from RAW cells", "experiment": "NSZs and sealing ring formation in osteoclasts derived from RAW cells", "type": "cell-based", "from_the_text": "C57/BL6 mice were used for osteoclast preparation as described previously (Chellaiah et al., 2000, J. Cell Biol., 148: 665.678; Chellaiah et al., 2007, J. Biol. Chem., 282: 10104-10116). Osteoclasts were generated in vitro using mouse bone marrow (BM) cells as described (Chellaiah et al., 2000, J. Cell Biol., 148: 665-678; Chellaiah et al., 2007, J. Biol. Chem., 282: 10104.10116). Osteoclasts differentiated from RAW 264.7 cells were also used to corroborate a few of the observations made with osteoclasts derived from mouse BM cells. Osteoclasts from RAW 264.7 cells were generated as described previously (Gupta et al., 2003, J Bone Miner Res 18: 669-685). Conditions were established that offer >90% population of mature multinucleated osteoclasts from both mouse bone marrow and RAW cells.\nAfter cells were kept in the serum-free α-MEM medium for two hours, LPL peptides of interest were added to a final concentration of 100-150 nM to cells in serum-free media (Chellaiah et al, 2000, J. Biol. Chem., 275: 11993-12002). Osteoclasts transduced with peptides of interest and added with bone particles in the presence of TNF-α for 3-4 hours or 12-14 hours were used for lysate preparations. Cells plated on coverslips and treated with peptides were used for actin staining to detect podosomes. […]"}},
  "data": [
    {"sequence": "MARGSVSDEE [Peptide P1, TAT-fused small molecular weight (10aa) amino-terminal LPL peptide, unsubstituted (S5S7)]", "values": [
      {"measurement": "localization of integrin αv in NSZs / colocalization with LPL", "setting": "integrin αv", "value": "abrogated"},
      {"measurement": "formation of NSZs", "setting": "[1]", "value": "significant decrease"},
      {"measurement": "formation of sealing rings", "setting": "[1]", "value": "significant decrease"}
    ]}
  ]
}
